Assays:
BRAF^V600E [1] = biological target: T1, BRAF^V600E (Homo sapiens (Human), UniProt P15056, V600E); experiment: BRAF^V600E kinase activity, Z′-LYTE enzymatic assay (SelectScreen, Invitrogen); type: biochemical; conditions: 100 μM ATP; read-out: BRAF^V600E Inhibition IC50
Procedure: BRAF kinase assays were performed using the Z′-LYTE™ enzymatic assay (Invitrogen, USA). […] Titrations were performed using a 1:3 dilution. Assays were performed using SelectScreen (Invitrogen).
Target sequence in this assay (P15056 whole entry V600E): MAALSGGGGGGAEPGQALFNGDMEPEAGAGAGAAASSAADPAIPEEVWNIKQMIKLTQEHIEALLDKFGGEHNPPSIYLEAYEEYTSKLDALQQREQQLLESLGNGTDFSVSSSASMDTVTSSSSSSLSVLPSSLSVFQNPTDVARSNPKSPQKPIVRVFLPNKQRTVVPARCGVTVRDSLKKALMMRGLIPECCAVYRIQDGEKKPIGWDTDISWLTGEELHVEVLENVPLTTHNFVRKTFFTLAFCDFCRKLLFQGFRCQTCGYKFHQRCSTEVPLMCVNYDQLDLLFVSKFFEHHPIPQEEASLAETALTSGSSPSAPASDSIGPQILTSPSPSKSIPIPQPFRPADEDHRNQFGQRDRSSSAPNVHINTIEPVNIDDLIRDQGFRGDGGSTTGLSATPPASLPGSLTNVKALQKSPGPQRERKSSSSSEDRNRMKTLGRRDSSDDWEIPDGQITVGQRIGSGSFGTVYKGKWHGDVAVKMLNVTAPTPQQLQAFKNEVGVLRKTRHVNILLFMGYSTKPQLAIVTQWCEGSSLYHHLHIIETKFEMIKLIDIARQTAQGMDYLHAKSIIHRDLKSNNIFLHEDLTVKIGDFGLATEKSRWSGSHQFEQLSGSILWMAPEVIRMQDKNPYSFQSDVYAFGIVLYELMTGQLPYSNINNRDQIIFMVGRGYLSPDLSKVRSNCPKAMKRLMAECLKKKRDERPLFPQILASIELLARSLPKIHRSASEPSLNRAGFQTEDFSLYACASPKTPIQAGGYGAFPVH

FGFR = experiment: Kinase inhibition of known ponatinib target FGFR; type: biochemical
BRAF/MEK complex = experiment: MEK co-immunoprecipitation monitoring BRAF/MEK complex formation in cells; type: cell-based; conditions: 1 μM (PHI1) or 1-5 μM (ponatinib), 1 hr
Procedure: (§2) Western blots were performed from whole cell lysates (WCL) prepared in lysis buffer containing 50 mM Tris-HCl pH7.5, 1% NP40, 150 mM NaCl, 1 mM EDTA and 10% glycerol in the presence of protease inhibitor cocktail (Roche). […] Co-immunoprecipitation assays were performed from whole cell lysate prepared in lysis buffer in the presence of protease inhibitor cocktail (Roche) and incubated at 4° C. overnight with gentle rotation, then protein G beads were added and incubated for 2 hrs more at 4° C. Kinase activity assay were performed following manufactured protocol with some modifications (Millipore). In brief, BRAF and CRAF kinase domain, and MEK1 recombinant proteins were incubated for 15 min with inhibitors, then corresponding substrates were added and incubated for 30 min at 30° C. and assay for western blot.

[2] = test system: p61BRAF^V600E dimers (SKMEL239-C4 cells); experiment: pMEK/pERK inhibition by western blot in SKMEL239-C4 melanoma cells; type: cell-based
Procedure: (§1) Cell lines were purchased from ATCC or provided by Poulikos Poulikakos laboratory at Icahn School of Medicine at Mount Sinai. A375, SKMEL30 and SKMEL2 cells were grown in Dulbecco's modified Eagle's medium (DMEM) with 10% fetal bovine serum (FBS), 1% Pen-Strep, 1% Glutamine. […] CALU6 cells were grown in Roswell Park Memorial Institute medium (RPMI) with 10% fetal bovine serum (FBS), 1% Pen-Strep, 1% Glutamine.

BRAF/CRAF heterodimers = experiment: CRAF co-immunoprecipitation monitoring BRAF/CRAF heterodimerization in cells; type: cell-based; conditions: 1 μM (PHI1) or 1-5 μM (ponatinib), 1 hr
Procedure: as §2

BRAF^V600E [3] = experiment: Biolayer interferometry, direct binding to purified BRAF; design: species or system human
Procedure: Human BRAF kinase domain (residues 443-723) with V600E mutation in addition to designed mutations to improve expression in E. coli as previously described^12 was cloned into the first multiple cloning site of a pET-28a vector, which expresses a hexa-histidine tag at the N-terminus of BRAF. Recombinant protein was transformed and expressed into E. coli strain BL21-Codon Plus(DE3)-RIPL (Agilent Technologies). Protein purification was performed by a rapid two-step procedure using nickel-affinity chromatography (Ni-NTA) followed by size exclusion chromatography with Superdex200 HR 10/30 (GE Healthcare).
BRAF was biotinylated using EZ-Link™ Sulfo NHS-LC-LC-Biotin (Invitrogen) in phosphate-buffered saline (PBS) according to manufacturer instructions. Excess biotin was removed using size exclusion chromatography. Freshly biotinylated protein was immobilized on Super Streptavidin biosensors (SSA) to high levels (6-8 nm) followed by quenching with biocytin. Compound binding experiments were performed at 25° C. in PBS, 0.01% Tween-20 and 2% DMSO. To reference for bulk solvent effects, binding curves were corrected using data from control protein-free SSA biosensors, which were included in each experiment and were treated similarly to protein-loaded sensors.

FLT3 = FLT3 (Homo sapiens (Human), UniProt P36888); experiment: Kinase inhibition of known ponatinib target FLT3; type: biochemical
Chain of FLT3 (P36888 27-993, species assumed): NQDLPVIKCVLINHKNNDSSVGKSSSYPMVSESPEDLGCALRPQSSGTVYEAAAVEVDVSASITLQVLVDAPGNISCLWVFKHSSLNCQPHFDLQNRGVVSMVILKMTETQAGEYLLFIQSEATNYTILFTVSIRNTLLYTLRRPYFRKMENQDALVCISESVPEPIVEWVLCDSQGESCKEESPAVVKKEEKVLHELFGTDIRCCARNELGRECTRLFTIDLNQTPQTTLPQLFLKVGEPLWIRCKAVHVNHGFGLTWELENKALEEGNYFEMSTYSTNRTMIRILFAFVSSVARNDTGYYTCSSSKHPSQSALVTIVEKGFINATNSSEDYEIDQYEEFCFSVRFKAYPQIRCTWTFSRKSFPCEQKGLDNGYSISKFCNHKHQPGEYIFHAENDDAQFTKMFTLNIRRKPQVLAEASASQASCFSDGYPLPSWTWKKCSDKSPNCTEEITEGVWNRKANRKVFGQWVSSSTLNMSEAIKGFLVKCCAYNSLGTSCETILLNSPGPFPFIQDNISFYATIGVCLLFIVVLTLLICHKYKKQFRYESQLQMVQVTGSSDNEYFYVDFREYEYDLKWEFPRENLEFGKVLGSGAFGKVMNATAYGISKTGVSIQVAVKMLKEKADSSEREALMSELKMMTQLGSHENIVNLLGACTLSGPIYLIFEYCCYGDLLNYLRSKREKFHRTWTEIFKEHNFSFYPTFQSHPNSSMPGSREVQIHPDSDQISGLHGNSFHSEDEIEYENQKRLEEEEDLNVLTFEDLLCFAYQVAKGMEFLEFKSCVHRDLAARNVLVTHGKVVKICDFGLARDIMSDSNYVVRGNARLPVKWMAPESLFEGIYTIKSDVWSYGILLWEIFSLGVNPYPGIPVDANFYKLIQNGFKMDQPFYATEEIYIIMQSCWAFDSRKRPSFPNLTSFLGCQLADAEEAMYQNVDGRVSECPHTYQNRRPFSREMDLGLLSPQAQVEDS

[4] = test system: BRAF^V600E monomers (A375 cells); experiment: pMEK/pERK inhibition by western blot in A375 melanoma cells; type: cell-based; conditions: compared to ponatinib
Procedure: as §1

[5] = test system: SMEL239 C4 melanoma cells; experiment: Cell viability assay (Cell-Titer Glo), SKMEL239 C4; type: cell-based; conditions: 72 hours
Procedure: For cell viability assays, we followed the manufacturer's protocol for Cell-Titer Glo (Promega). In brief, cells were plated in 96-well plates at a density of 5000 cells per well. The next day, cells were treated with increasing concentrations of inhibitors for 72 hours at 37° C. At the end of the incubation period, 100 µL of Cell-Titer Glo (Promega) was added to each well and further incubated for 15 min. at room temperature. Cell viability was determined by measuring luminescence and was detected by a F200 PRO microplate reader (TECAN). Viability assays were performed in at least triplicate and the data normalized to vehicle-treated control wells. IC50 values were determined by nonlinear regression analysis using Prism software (Graphpad).

[6] = biological target: BRAF monomer (BRAF509H mutant) (Homo sapiens (Human), UniProt P15056, R509H); experiment: Isothermal titration calorimetry with BRAF509H mutant unable to dimerize; type: binding; conditions: PBS plus 2% DMSO
Chain of BRAF monomer (BRAF509H mutant) (P15056 443-723 R509H limits assumed): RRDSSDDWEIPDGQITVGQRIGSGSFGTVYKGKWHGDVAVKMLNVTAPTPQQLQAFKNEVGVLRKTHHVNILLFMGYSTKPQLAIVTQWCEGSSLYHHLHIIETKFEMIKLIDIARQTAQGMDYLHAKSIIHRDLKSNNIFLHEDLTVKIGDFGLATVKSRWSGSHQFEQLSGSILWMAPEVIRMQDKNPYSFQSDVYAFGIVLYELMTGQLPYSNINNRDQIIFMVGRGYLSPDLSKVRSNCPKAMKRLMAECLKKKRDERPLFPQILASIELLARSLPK
Procedure: ITC was recorded using a MicroCal PEAQ-ITC instrument. […] Immediately before each ITC measurement, concentrated protein solution was diluted 0.8× in PBS, matched to 2% DMSO and used in the syringe. Protein was titrated in 18 or 20 injections of 2 l volume until saturation. Thermodynamic parameters were obtained using PEAQ-ITC analysis software and a one-site binding model.

BRAF^V600E [7] = biological target: T1, BRAF^V600E; experiment: In vitro kinase assay, BRAF^V600E activity to phosphorylate recombinant MEK (western blot); type: biochemical; conditions: western blot readout
Target sequence in this assay (P15056 457-717 V600E): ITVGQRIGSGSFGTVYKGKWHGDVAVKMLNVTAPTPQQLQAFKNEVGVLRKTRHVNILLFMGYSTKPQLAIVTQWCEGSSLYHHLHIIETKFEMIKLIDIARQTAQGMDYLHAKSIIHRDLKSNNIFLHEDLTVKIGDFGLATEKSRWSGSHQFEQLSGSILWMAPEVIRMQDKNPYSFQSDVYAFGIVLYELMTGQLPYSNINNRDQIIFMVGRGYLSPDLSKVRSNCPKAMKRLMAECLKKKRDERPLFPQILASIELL
Procedure: as §2

CRAF = CRAF (Homo sapiens (Human), UniProt P04049); experiment: In vitro CRAF kinase activity assay (western blot); type: biochemical
Chain of CRAF (P04049 349-609, species assumed): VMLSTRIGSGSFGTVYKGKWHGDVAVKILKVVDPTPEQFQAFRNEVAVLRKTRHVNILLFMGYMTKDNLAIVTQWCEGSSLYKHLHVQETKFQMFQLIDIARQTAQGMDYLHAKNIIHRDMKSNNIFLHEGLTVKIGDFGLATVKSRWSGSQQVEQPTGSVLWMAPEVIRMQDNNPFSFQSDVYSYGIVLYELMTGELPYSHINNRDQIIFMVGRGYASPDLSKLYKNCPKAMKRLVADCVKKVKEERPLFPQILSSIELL
Procedure: as §2

ERK signaling = experiment: Inhibition of ERK signaling in BRAF^V600E, p61BRAF^V600E and RAS mutant/BRAF^WT cell lines (immunoblot); type: cell-based; conditions: 1 μM or 5 μM, 1 hr, all cell lines
Procedure: as §1

| SMILES | IC50 (BRAF^V600E [1]) [nM] | further results |
| --- | --- | --- |
| CCN(C)S(=O)(=O)Nc1ccc(F)c(C(=O)c2c[nH]c3ncc(-c4cnc(C5CC5)nc4)cc23)c1F [PLX7904, reference compound] | 6.7 |  |
| Cc1ccc(C(=O)Nc2ccc(CN3CCN(C)CC3)c(C(F)(F)F)c2)cc1C#Cc1cnc2cccnn12 [Ponatinib] |  | Inhibition of BRAF^V600E phosphorylation of recombinant MEK (BRAF^V600E [7]): potent inhibitor; Inhibition of CRAF activity (CRAF): potently inhibited; Inhibition of ERK signaling (ERK signaling): inhibited ERK signaling |
| Cc1ccc(C(=O)Nc2ccc(CNCCN3CCC(=O)CC3)c(C(F)(F)F)c2)cc1C#Cc1cnc2cccnn12 [Cmp. 5, 3-(imidazo[1,2-b]pyridazin-3-ylethynyl)-4-methyl-N-(4-(((2-(4-oxopiperidin-1-yl)ethyl)amino)methyl)-3-(trifluoromethyl)phenyl)benzamide] | 30.7 |  |
| Cc1ccc(C(=O)Nc2ccc(CNCCc3ccncn3)c(C(F)(F)F)c2)cc1C#Cc1cnc2cccnn12 [Cmp. 7, 3-(imidazo[1,2-b]pyridazin-3-ylethynyl)-4-methyl-N-(4-(((2-(pyrimidin-4-yl)ethyl)amino)methyl)-3-(trifluoromethyl)phenyl)benzamide] | 44.3 |  |
| N#Cc1c(Oc2ccc(F)c(NC(=O)Cc3cccc(C(F)(F)F)c3)c2)ccc2nc(NC(=O)C3CC3)sc12 [TAK-632, reference compound] | 36.2 |  |
| C#Cc1cc(C(=O)Nc2ccc(CNCCN3CCN(C(=O)OC(C)(C)C)CC3)c(C(F)(F)F)c2)ccc1C [Cmp. 9, Tert-Butyl4-[2-([[4-(3-Ethynyl-4-Methylbenzamido)-2-(Trifluoromethyl)Phenyl]Methyl] Amino)Ethyl]Piperazine-1-Carboxylate] | 10900 |  |
| C#Cc1cc(C(=O)Nc2ccc(CNCCN3CCOCC3)c(C(F)(F)F)c2)ccc1C [Cmp. 10, 3-ethynyl-4-methyl-N-(4-(((2-morpholinoethyl)amino)methyl)-3-(trifluoromethyl)phenyl)benzamide] | 1360 |  |

The next lines start with results.

| IC50 (BRAF^V600E [1]) [nM] | SMILES | further results |
| --- | --- | --- |
| 5.5 | Cc1ccc(C(=O)Nc2ccc(CNCCN3CCNCC3)c(C(F)(F)F)c2)cc1C#Cc1cnc2cccnn12 [Cmp. 13, 3-(2-[imidazo[1,2-b]pyridazin-3-yl]ethynyl)-4-methyl-n-[4-([[2-(piperazin-1-yl)ethyl]amino]methyl)-3-(trifluoromethyl)phenyl]benzamide] |  |
| 10.4 | Cc1ccc(C(=O)Nc2ccc(CNCCN3CCOCC3)c(C(F)(F)F)c2)cc1C#Cc1cnc2cccnn12 [PHI1, 3-(imidazo[1,2-b]pyridazin-3-ylethynyl)-4-methyl-N-(4-(((2-morpholinoethyl)amino)methyl)-3-(trifluoromethyl)phenyl)benzamide] | Reduction of inhibitory activity for FGFR relative to ponatinib (FGFR): 43 fold; Induction of BRAF/MEK complexes (BRAF/MEK complex): induces less; IC50 ([2]; SKMEL239-C4 cells, 1 hr treatment): 300 to 500 nM; Co-operativity in second site inhibition of BRAF^V600E dimer (p-ERK IC50 upon Encorafenib pre-treatment) ([2]; SKMEL239 C4 cells with vs without Encorafenib pre-treatment): positive co-operativity; Induction of BRAF/CRAF complexes (BRAF/CRAF heterodimers): induces less; Difference in Koff values versus ponatinib (BLI) (BRAF^V600E [3]): no significant difference; Affinity for BRAF^V600E compared to ponatinib (BLI) (BRAF^V600E [3]; 25° C., PBS, 0.01% Tween-20, 2% DMSO): higher affinity; Reduction of inhibitory activity for FLT3 relative to ponatinib (FLT3): 10 fold; Activity against BRAF^V600E monomers in A375 cells [4]: significantly reduced compared to ponatinib; Growth inhibition (viability) [5]: inhibits effectively the growth; Binding affinity for BRAF monomers (ITC) [6]: high micromolar affinity |
| 1830 | C#Cc1cc(C(=O)Nc2ccc(CNCCN3CCN(c4ccccn4)CC3)c(C(F)(F)F)c2)ccc1C [Cmp. 14, 3-Ethynyl-4-Methyl-N-(4-(((2-(4-(Pyridin-2-Yl)Piperazin-1-Yl)Ethyl)Amino)Methyl)-3-(Trifluoromethyl)Phenyl) benzamide] |  |
| 48 | COc1cc(N2CCN(CCNCc3ccc(NC(=O)c4ccc(C)c(C#Cc5cnc6cccnn56)c4)cc3C(F)(F)F)CC2)ncn1 [Cmp. 4, 3-(imidazo[1,2-b]pyridazin-3-ylethynyl)-N-(4-(((2-(4-(6-methoxypyrimidin-4-yl)piperazin-1-yl)ethyl)amino)methyl)-3-(trifluoromethyl)phenyl)-4-methylbenzamide] |  |
| 11900 | C#Cc1cc(C(=O)Nc2ccc(CNCCN3CCNCC3)c(C(F)(F)F)c2)ccc1C [Cmp. 12, 3-Ethynyl-4-Methyl-N-[4-([[2-(Piperazin-1-Yl)Ethyl]Amino]Methyl)-3-(Trifluoromethyl)Phenyl] benzamide] |  |
| 8940 | C#Cc1cc(C(=O)Nc2ccc(CNCCN3CCN(c4ccccc4)CC3)c(C(F)(F)F)c2)ccc1C [Cmp. 11, 3-Ethynyl-4-Methyl-N-[4-([[2-(4-Phenylpiperazin-1-Yl)Ethyl]Amino]Methyl)-3-(Trifluoromethyl)Phenyl] benzamide] |  |
| 29.4 | Cc1ccc(C(=O)Nc2ccc(CNCCN3CCN(S(C)(=O)=O)CC3)c(C(F)(F)F)c2)cc1C#Cc1cnc2cccnn12 [Cmp. 6, 3-(imidazo[1,2-b]pyridazin-3-ylethynyl)-4-methyl-N-(4-(((2-(4-(methylsulfonyl)piperazin-1-yl)ethyl)amino)methyl)-3-(trifluoromethyl)phenyl)benzamide] |  |
| 1790 | C#Cc1cc(C(=O)Nc2ccc(CNCCN3CCN(C(=O)OC)CC3)c(C(F)(F)F)c2)ccc1C [Cmp. 8, Methyl 4-[2-([[4-(3-Ethynyl-4-Methylbenzamido)-2-(Trifluoromethyl)Phenyl]Methyl] Amino)Ethyl]Piperazine-1-Carboxylate] |  |
